Patent publication US20180168151A1, “COMPOSITION AND SYSTEM FOR ATTRACTING LEPIDOPTEROUS INSECTS” (The New Zealand Institute for Plant and Food Research …, priority 2015, published 2018)

Experiments:
[1] = tested on: OBLR; conditions: for numbers of OBLR males and females attracted, each alone, compared with each other: 10 mg benzyl nitrile alone, 0.3 mL acetic acid alone
Protocol: (§1) The variance of mean captures obtained with each compound or each blend of compounds was stabilized using the √(x+1) transformation of counts and the significance of treatment effects tested using ANOVA.
(§2) This experiment was conducted from 21 Jun. to 2 Jul. 2015 only for ESBM and OBLR in a mixed varieties apple orchard in Summerland, British Columbia, Canada (49°34′50.02″N, 119°38′16.57″W). The relative attractiveness of the following treatments was investigated: 1) 10 mg benzyl nitrile alone; 2) 0.3 mL acetic acid alone; and 3) 10 mg benzyl nitrile+0.3 mL acetic acid. A trap with a blank lure was used as negative control.

[2] = tested on: ESBM; conditions: for numbers of ESBM males and females attracted, each alone, compared with each other: 10 mg benzyl nitrile alone, 0.3 mL acetic acid alone
Protocol: as §1, §2

[3] = tested on: OBLR
Protocol: as §1
(§3) This experiment was conducted between the 11th to the 22 Jul. 2014 in a mixed variety organic apple orchard in Summerland, British Columbia, Canada. Large white delta traps (Trece Inc) were used. The loadings of blends were as follow: 1) 100 mg benzyl nitrile and 3 mL acetic acid; 2) 100 mg of 2-phenyethanol and 3 mL acetic acid; 3) 100 mg benzyl alcohol and 3 mL acetic acid. Traps baited with 3 mL of acetic acid was used to quantify the role of acetic acid. A trap with a blank lure was used as negative control. Traps were baited with the compound of formula I and placed in 5 rows, with five replicates of each treatment in a randomized block design. Traps were positioned 1.5 m above the ground in each trap tree, and were spaced 20 m apart in each row. Each treatment was assigned randomly to a trap tree within each row of trees. The polythene sachet and the acetic acid vial were attached to the side of the traps using Velcro tape. Sticky bases were checked weekly during the experimental period.
(§4) This experiment was conducted between 3 Jul. to 17 Jul. 2014 in a mixed variety organic apple orchard in Summerland, British Columbia, Canada using the same experimental protocol as Example 4. The trial targeted both ESBM and OBLR. The relative attractiveness of the following treatments was investigated: 1) 100 mg benzyl nitrile alone; 2) 3 mL acetic acid alone; and 3) 100 mg of benzyl nitrile and 3 mL acetic acid. A trap with a blank lure was used as negative control.

[4] = tested on: ESBM
Protocol: as §1, §3, §4

[5] = tested on: ESBM; experiment: Example 1B: individual compounds as attractants, baited traps; format: in vivo, Spilonota ocellana; conditions: tested individually, 10 mg (acetic acid 0.3 mL); no significant differences among treatments
Protocol: (§5) This experiment was conducted from 28 Nov. to 12 Dec. 2013 for LBAM and 3-10 Jun. 2015 for ESBM and OBLR to investigate the biological activity of the individual volatile organic compounds. Lures of benzyl alcohol, benzyl nitrile, indole, 2-phenyethanol, (E)-nerolidol, and 0.3 mL acetic acid were made by dispensing 10 mg of each compound on a Boomerang regular cellulose acetate filter (7.5 mm diameter×10 mm, Moss Packaging Co. Ltd., Wellington, New Zealand) inside a permeable polyethylene bag (100 μm wall thickness, 20 mm×20 mm, Masterton, New Zealand) that was then heat-sealed. A trap with a lure without chemical was used as negative control.

[6] = tested on: LBAM; experiment: as above; format: in vivo, Epiphyas postvittana; conditions: tested individually, 10 mg (acetic acid 0.3 mL); no significant differences among treatments
Protocol: as §5

[7] = tested on: Lepidopterous insects; experiment: Summary of field attractant trials (description); format: in vivo; conditions: other compounds released by infested apple seedlings; results were inconsistent
Protocol: In the trials described in the Examples, the compounds of formula I were placed inside a permeable polyethylene bag. The acetic acid was applied to a cotton ball inside a 5 ml polyethylene vial containing a 1 mm hole. The bag and vial were placed in the centre of a sticky trap.

[8] = tested on: TLLR; experiment: Example 5: binary and ternary blends, baited traps; format: in vivo, Pandemis limtata; conditions: 100 mg 2-phenylethanol added to 100 mg benzyl nitrile and 3 mL acetic acid
Protocol: (§6) This trial was conducted in a mixed variety apple orchard in Summerland, British Columbia, Canada from 28 Jul. to 11 Aug. 2014 targeting ESBM and threelined leaf rollers (TLLR). […] White delta traps (Trece Inc) were used.

[9] = tested on: ESBM; experiment: Example 5: binary and ternary blends, baited traps; format: in vivo, Spilonota ocellana; conditions: 100 mg 2-phenylethanol added to 100 mg benzyl nitrile and 3 mL acetic acid
Protocol: as §6

[10] = tested on: OBLR; experiment: Example 1B: individual compounds as attractants, baited traps; format: in vivo, Choristoneura rosaceana; conditions: tested individually, 10 mg
Protocol: as §5

[11] = tested on: ESBM; experiment: Example 7A: various doses of benzyl nitrile with constant acetic acid, baited traps; format: in vivo, Spilonota ocellana
Protocol: Large white delta traps (Trece Inc) were used. […] Sticky bases were checked weekly during the experimental period.
This experiment was conducted between 8 Jul. to 22 Jul. […] This trial targeted ESBM. The relative attractiveness of three binary blends containing constant amount of acetic acid (3 mL) plus varying amounts of benzyl nitrile (1, 10, and 100 mg) was investigated. […] Experimental protocol was similar to Example 4.

[12] = binary blend containing 1 mg benzyl nitrile, 3 mL acetic acid
[13] = binary blend with constant 3 mL acetic acid
[14] = 10 mg benzyl nitrile added to 0.3 mL acetic acid, P<0.05
[15] = 100 mg benzyl nitrile added to 3 mL acetic acid

Compound: CC(=O)O [acetic acid]
- numbers of OBLR males and females attracted, each alone, compared with each other [1]: attracted similar numbers
- numbers of ESBM males and females attracted, each alone, compared with each other [2]: attracted similar numbers
- OBLR males and females attracted, compared with traps baited with benzyl nitrile alone ([3]; 3 mL acetic acid alone): significantly attracted more males and females
- ESBM males and females attracted, compared with traps baited with benzyl nitrile alone ([4]; 3 mL acetic acid alone): significantly attracted more males and females
- attraction of ESBM into traps [5]: attracted males and females into the traps
- attraction of adult LBAM into traps [6]: attracted males and females into the traps

Compound: c1ccc2[nH]ccc2c1 [indole]
- attractant activity against some insects [7]: some attractant activity

Compound: C=CC(C)(O)CC/C=C(\C)CCC=C(C)C (centres unmarked) [(E)-nerolidol]
- attractant activity against some insects [7]: some attractant activity

Compound: OCCc1ccccc1 [2-phenylethanol]
- change in number of TLLR males and females on addition to binary blend benzyl nitrile/acetic acid [8]: did not result in significant increase
- change in number of ESBM males and females on addition to binary blend benzyl nitrile/acetic acid [9]: did not result in significant increase
- attraction of OBLR into traps [10]: attracted males and females
- attraction of adult LBAM into traps [6]: attracted males and females into the traps

Compound: OCc1ccccc1 [benzyl alcohol]
- attraction of adult LBAM into traps [6]: attracted males and females into the traps

Compound: N#CCc1ccccc1 [benzyl nitrile]
- ESBM females attracted compared with acetic acid alone [11, 12]: significantly more females
- response of ESBM males compared with acetic acid alone [11, 12]: not significant
- change in number of ESBM males and females caught on increasing dose from 1 mg to 10 mg [11, 13]: significant increase
- change in number of ESBM males and females caught on increasing dose from 10 mg to 100 mg [11, 13]: did not result in a significant increase
- change in number of OBLR males and females caught on addition to acetic acid [1, 14]: significant increases
- numbers of OBLR males and females attracted, each alone, compared with each other [1]: attracted similar numbers
- change in number of ESBM males and females caught on addition to acetic acid [2, 14]: significant increases
- numbers of ESBM males and females attracted, each alone, compared with each other [2]: attracted similar numbers
- fold increase in number of OBLR females caught on addition to acetic acid [3, 15]: 9 fold
- fold increase in number of OBLR males caught on addition to acetic acid [3, 15]: 2 fold
- attractiveness to adults OBLR, compound alone ([3]; 100 mg benzyl nitrile alone): not attractive
- fold increase in number of ESBM females caught on addition to acetic acid [4, 15]: 3 fold
- fold increase in number of ESBM males caught on addition to acetic acid [4, 15]: 4 fold
- attractiveness to adults ESBM, compound alone ([4]; 100 mg benzyl nitrile alone): not attractive
- attraction of ESBM into traps [5]: attracted males and females into the traps
- attraction of adult LBAM into traps [6]: attracted males and females into the traps
